# Results reported in patent US20130055471A1, “Transgenic Ozone-Resistant Plants” (priority 2009, published 2013).
# “Also recorded” adds a separate entry of the source.
# Legend:
# Cotton [1] = assay: Total dark respiration and SHAM-sensitive AOX by phase shift fluorescence, cotton leaf sections; format: in vivo, Gossypium spp.; conditions: for increase of AOX respiration compared to the initial AOX respiration rate: ontogenic phase in 0 ppbv ozone ambient
# From the text: All plantings were done at day 0. shifting plants to new ozone background for all plants=day 70. […] 60 ppb plants after 8 days (=day 78) in 0 ppb still act as if in 60 ppb. Sugar Cane: plants from 0 ppb, after having their first 70 days of development in 0 ppb, stayed for the nex 33 days (till day 103) in 60 ppb before being placed back in their original 0 ppb.
# Ozone generators (model OP-35-3P, Grupo Interozone, Brazil) were coupled to ozone monitors (model 202, 2B Technologies, Inc. USA; dynamic range of 1.5 ppbv to 100 ppmv of ozone; precision 1.5 ppbv or 2% of the reading) using a ozone monitor—generator interface (Engineering dep. Crops Advance Brazil). […] This was used as the upper limit for phytotron number one. Phytotron number two was set at 30 ppbv average ozone. Phytotron number three was set at 60 ppbv average ozone. Ozone levels of phytotron number two and three were permanently measured at 10 second intervals and averaged per minute. Each ozone monitor fed averaged values over an analog output to an ozone monitor—ozone generator interface. Hysteresis was set at +/−5 ppbv. Ozone levels were monitored close to the inlet of the two internal circulation ventilators. The ozone generators were adapted to accept an external digital signal from the interface.
# Respiration of plant material was tested as follows: Partial oxygen pressure drops due to oxygen consumption as result of dark respiration were measured using phase shift fluorescence measurement. For this, a NeoFox™ Phase Measurement System was used (Fluorometer Bench version using a QBIF600-VIS-NIR laboratory-grade bifurcated optical fiber with FOXY-R-8 cm overcoated fluorescence oxygen needle sensor, Ocean Optics Inc. USA).
# Fluorescence phase shift was expressed as Tau in microseconds (μs) and has an inverse and linear relation with the partial oxygen pressure.
# Salicylhydroxamic acid (SHAM) (99%, Sigma-Aldrich Brasil Ltda. Sao Paulo, Brazil) was used as an AOX inhibitor. The soluble sodium salicylhydroxamate salt was prepared by titrating SHAM with 0.1 M sodium hydroxide until neural pH. A stock solution ([…]) was prepared containing 300 ml/L ethanol from initial dissolving SHAM (same abbreviation is used for the salicylhydroxamate salt). From the stock solution a 20 mmol/L salicylhydroxamate final test solution was prepared by taking 12.3 ml stock solution and completing till 100 ml with a phosphate buffer solution (pH 7). The final SHAM test solution thus contained 3.7% residual ethanol. For proper control, the comparative test solution was also provided with 3.7 ml of ethanol per 100 ml of phosphate buffer solution (pH 7). To both solutions two drops of wetting agent (Silwet L-77 AG, GE Silicones Inc. USA) were added per 25 ml of test solution.
# Plant material collected was always the first fully grown leaf counting from the apical point downwards or outwards (e.g. for monocotyls). […] Per test, four leafs from four different plants were sampled. Cotton leafs were cut in half along the mid nerve. Using a clipper, 16 leaf sections of equal surface area of 400.9 mm2 each were cut, one from each base half and one from each top half part giving 4 sections per leaf and 16 sections per test. The leaf sections were distributed equally over two sub samples, one with and one without salicylhydroxamate. Using a chirurgical blade, all sections were given 7 parallel cuts (through and through) at approximately 2.5 mm apart over almost the full length of the section to guarantee lateral infiltration of the test solutions and gas exchange.
# Within 10 minutes of plant sampling the sections were cut, initial subsample weight was registered using a high precision laboratory scale and the subsamples were placed in their solutions with and without salicylhydroxamate for 60 minutes in the dark, to guarantee dark adaptation.
# Each sample contained 4 leaves, 4 sections per leaf providing 16 sections, 8 per subsample. […]
# Cotton [2] = assay: Full leaf Cotton Total Dark Respiration (TDR) measurements; format: in vivo, Gossypium spp.
# From the text: (§1) Ozone generators (model OP-35-3P, Grupo Interozone, Brazil) were coupled to ozone monitors (model 202, 2B Technologies, Inc. […] Crops Advance Brazil). […] This was used as the upper limit for phytotron number one. […] Ozone levels of phytotron number two and three were permanently measured at 10 second intervals and averaged per minute. Each ozone monitor fed averaged values over an analog output to an ozone monitor-ozone generator interface. Hysteresis was set at +/-5 ppbv. Ozone levels were monitored close to the inlet of the two internal circulation ventilators. The ozone generators were adapted to accept an external digital signal from the interface. Respiration of plant material was tested as follows: Partial oxygen pressure drops due to oxygen consumption as result of dark respiration were measured using phase shift fluorescence measurement. For this, a NeoFoxTM Phase Measurement System was used (Fluorometer Bench version using a […] laboratory-grade bifurcated optical fiber with FOXY-R-8 cm overcoated fluorescence oxygen needle sensor, Ocean Optics Inc. USA). Fluorescence phase shift was expressed as Tau in microseconds (μs) and has an inverse and linear relation with the partial oxygen pressure. […] In addition, full leaf Total Dark Respiration (TDR) measurements without the use of any pre-treatment solution (no SHAM and pretreatment control) were executed for cotton, corn and rice. Data (tables 2, 3 and 4) show clear positive correlation between a) total respiration per unit of fresh weight and ozone level, and b) total respiration per unit of dry weight and ozone level.
# Rice = assay: Full leaf Rice Total Dark Respiration (TDR) measurements; format: in vivo, Oryza sativa L.
# From the text: as §1
# Corn = assay: Full leaf Corn Total Dark Respiration (TDR) measurements; format: in vivo, Zea mays L.
# From the text: as §1
# Sugarcane plants = assay: AOX and total dark respiration in sugarcane exposed to various levels of ozone; format: in vivo, Saccharum spp.; conditions: for relative AOX, integration of the parabolic function yields / absolute AOX, integration of the parabolic function yields: 60 ppbv
# From the text: For sugarcane 4 plantlets per pot were provided and these plantlets were transplanted from the agar following washing of their root system with nutrient solution (see below) in order to remove residual agar. Every sugar cane pot was provided with a dome consisting of a 5 litre water flask (PP) of which the bottom was removed creating a 30 cm high dome. Crepe-tape was used to provide an air-tight connection between the bottom rim of the flask and the planting pot. The 40 mm screw cap on top functioned as a ventilation valve, initially maintaining near 100% RV to prevent the plantlets from drying out. Directly after transplanting, the sugar cane plantlets were placed in a phytotron (4 pots per phytotron) more in particular in acrylic cabinets created therein (see below). The sugar cane domes were removed 10 days after transplanting. All plantings were done at day 0. shifting plants to new ozone background for all plants=day 70. […] 60 ppb plants after 8 days (=day 78) in 0 ppb still act as if in 60 ppb. Sugar Cane: plants from 0 ppb, after having their first 70 days of development in 0 ppb, stayed for the nex 33 days (till day 103) in 60 ppb before being placed back in their original 0 ppb. […] Sugarcane plants were grown in the same manner as described above in Example 2. The AOX and total dark respiration were measured for plants exposed to various levels of ozone as described above in Example 2.
# [3] = 0 →30 ppbv ozone: plants grown in 0 ppvb O3 and transferred to 30 ppvb O3
# [4] = 0 →60 ppbv ozone: plants grown in 0 ppvb O3 and transferred to 60 ppvb O3 (day 70, 7 days)
# [5] = 0 →60 →0 ppbv ozone: grown in 0 ppvb O3, transferred to 60 ppvb O3 and transferred back to 0 ppvb O3
# [6] = 60 →0 ppbv ozone: plants grown in 60 ppvb O3 and transferred to 0 ppvb O3 (day 70, 8 days)
# [7] = ozone concentration during growth 30 ppbv
# [8] = ozone concentration during growth 60 ppbv
compound,measurement,setting,value
O=[O+][O-] [ozone],AOX component (arb units),Cotton [1]; [3],3.26 arb units
same,AOX/TDR,Cotton [1]; [3],30.3%
same,AOX/TDR relative to initial equilibrium,Cotton [1]; [3],116.5%
same,TDR excl AOX dTau/t (μs/s) without SHAM,Cotton [1]; [3],7.51E−06 μs/s
same,TDR incl AOX dTau/t (μs/s) with SHAM,Cotton [1]; [3],1.08E−05 μs/s
same,AOX component (arb units),Cotton [1]; [4],3.77 arb units
same,AOX/TDR,Cotton [1]; [4],39.6%
same,AOX/TDR relative to initial equilibrium,Cotton [1]; [4],152.5%
same,TDR excl AOX dTau/t (μs/s) without SHAM,Cotton [1]; [4],5.75E−06 μs/s
same,TDR incl AOX dTau/t (μs/s) with SHAM,Cotton [1]; [4],9.52E−06 μs/s
same,AOX component (arb units),Cotton [1]; [5],2.95 arb units
same,AOX/TDR,Cotton [1]; [5],25.0%
same,AOX/TDR relative to initial equilibrium,Cotton [1]; [5],96.2%
same,TDR excl AOX dTau/t (μs/s) without SHAM,Cotton [1]; [5],8.87E−06 μs/s
same,TDR incl AOX dTau/t (μs/s) with SHAM,Cotton [1]; [5],1.18E−05 μs/s
same,AOX component (arb units),Cotton [1]; [6],3.97 arb units
same,AOX/TDR,Cotton [1]; [6],35.8%
same,AOX/TDR relative to initial equilibrium,Cotton [1]; [6],100.5%
same,TDR excl AOX dTau/t (μs/s) without SHAM,Cotton [1]; [6],7.13E−06 μs/s
same,TDR incl AOX dTau/t (μs/s) with SHAM,Cotton [1]; [6],1.11E−05 μs/s
same,increase of AOX respiration compared to the initial AOX respiration rate,Cotton [1]; placed in the 30 ppbv ozone ambient,16.5%
same,increase of AOX respiration compared to the initial AOX respiration rate,Cotton [1]; placed in the 60 ppbv ozone ambient,52.5%
same,AOX respiration after return to the 0 ppbv ozone ambient,"Cotton [1]; ontogenic phase in 0 ppbv, passed time in the 60 ppbv ozone ambient",returned fully to its initial level
same,AOX component (arb units),Cotton [1]; plants grown in 30 ppvb O3,2.97 arb units
same,AOX/TDR,Cotton [1]; plants grown in 30 ppvb O3,29.9%
same,TDR excl AOX dTau/t (μs/s) without SHAM,Cotton [1]; plants grown in 30 ppvb O3,6.96E−06 μs/s
same,TDR incl AOX dTau/t (μs/s) with SHAM,Cotton [1]; plants grown in 30 ppvb O3,9.93E−06 μs/s
same,AOX component (arb units),Cotton [1]; plants grown in 60 ppvb O3,3.33 arb units
same,AOX/TDR,Cotton [1]; plants grown in 60 ppvb O3,35.6%
same,AOX/TDR relative to initial equilibrium,Cotton [1]; plants grown in 60 ppvb O3,100.0%
same,TDR excl AOX dTau/t (μs/s) without SHAM,Cotton [1]; plants grown in 60 ppvb O3,6.03E−06 μs/s
same,TDR incl AOX dTau/t (μs/s) with SHAM,Cotton [1]; plants grown in 60 ppvb O3,9.36E−06 μs/s
same,AOX respiration during stay in the zero ozone level ambient,Cotton [1]; plants grown up in the 60 ppbv ozone level ambient,did not lower their AOX respiration
same,Normalized dark respiration activity (dwt),Cotton [2]; [7],13.4 h/Tau/g dry weigth/40 ml
same,Normalized dark respiration activity (fwt),Cotton [2]; [7],72.6 h/Tau/g fresh weigth/40 ml
same,Normalized dark respiration activity (dwt),Cotton [2]; [8],12.7 h/Tau/g dry weigth/40 ml
same,Normalized dark respiration activity (fwt),Cotton [2]; [8],67.9 h/Tau/g fresh weigth/40 ml
same,Normalized dark respiration activity (dwt),Rice; [7],8.2 h/Tau/g dry weigth/40 ml
same,Normalized dark respiration activity (fwt),Rice; [7],29.2 h/Tau/g fresh weigth/40 ml
same,Normalized dark respiration activity (dwt),Rice; [8],7.6 h/Tau/g dry weigth/40 ml
same,Normalized dark respiration activity (fwt),Rice; [8],29.4 h/Tau/g fresh weigth/40 ml
same,Normalized dark respiration activity (dwt),Corn; [7],14.7 h/Tau/g dry weigth/40 ml
same,Normalized dark respiration activity (fwt),Corn; [7],78.3 h/Tau/g fresh weigth/40 ml
same,Normalized dark respiration activity (dwt),Corn; [8],14.5 h/Tau/g dry weigth/40 ml
same,Normalized dark respiration activity (fwt),Corn; [8],72.1 h/Tau/g fresh weigth/40 ml
same,"relative AOX, integration of the parabolic function yields",Sugarcane plants; Time of Day 5.3,0.0%
same,"absolute AOX, integration of the parabolic function yields",Sugarcane plants; Time of Day 5.6,0.0
same,"absolute AOX, integration of the parabolic function yields",Sugarcane plants; Time of Day 23.0,51.9
same,"relative AOX, integration of the parabolic function yields",Sugarcane plants; Time of Day 24.3,436%
same,AOX at 10:00 am (% of TDR),"Sugarcane plants; 70 days 0 ppbv, 33 days at 60 ppbv, returned to 0 ppbv, after 5 days",approximately 5 % of TDR
same,AOX at about 10:00 am (% of TDR),"Sugarcane plants; 70 days 0 ppbv, 33 days at 60 ppbv, then returned to 0 ppbv, first",approximately 35 % of TDR
same,AOX level after shift to 0 ppbv,"Sugarcane plants; 70 days at 60 ppbv, thereafter 33 days in 0 ppbv",maintained their 60 ppb AOX levels; also recorded: maintain their high AOX; also recorded: consistently high AOX levels
same,AOX 60 ppbv/AOX 0 ppbv (dTau/dt/dTau/dt),Sugarcane plants; absolute AOX,169%
same,AOX 60 ppbv/AOX 0 ppbv (%/%),Sugarcane plants; relative AOX,154%
